Series [1] relates to P. falciparum. The experiment in a line: Antimalarial activity against P. falciparum in vitro (Desjardins [3H]hypoxanthine incorporation). The following applies: Plasmodium falciparum; in vitro growth of P. falciparum, [3H]hypoxanthine incorporation, 48 hours test; read-out: IC50. It is filed as cell-based. The method, then:
FIG. 1, the anti-malarial action of a precursor of thiazolium (designated by TE4c in the examples), and corresponding thiazolium (T4) as a function of the concentration of drug, according to the Desjardins test, (Desjardins R. E. et al, Antimicrob. Agents Chemother. 1979, 16, 710-718),
The IC50 measurements are determined vis-à-vis P. falciparum according to the Desjardins method in which the incorporation of [^3H] hypoxanthine (FIG. 1) into the nucleic acids is an indicator of cell viability. In each case, optical microscopy controls are carried out.
(§1) The IC50 is the concentration which inhibits by 50% the in vitro growth of P. falciparum: the LD50 is the lethal dose corresponding to the death of 50% of the mice and the ED50 is the effective dose for inhibiting by 50% the in vivo growth of P. vinckei according to a 4-day suppressive test, TI corresponds to the therapeutic index, TI=LD50 (semi-chronic)/ED50; ip: intraperitoneal administration; po: per os.

Series [2] can be described thus: Tolerance in the mouse: LD50 after acute or semi-chronic administration. It is filed as in vivo. The note with it: for LD50 at 4 days / LD50: in vivo; for LD50 at 4 days: twice per day for 4 consecutive days; for LD50: single dose.
Source text: (§2) B) Antimalarial Activity in vivo Against a Mouse Infected by P. vinckei and Tolerance After Administration in Acute or Semi-chronic Conditions.
as §1

For series [3], the system named is P. vinckei. The experiment in a line: animal or person. It counts as in vivo. The following applies: Plasmodium vinckei, 96 h, mouse, 4-day suppressive test, TE4c in 50/50 PEG/castor oil, read-out: In vivo ED50 (mg/kg) (P. vinckei).
Source text: as §2, §1

A short description of series [4]: Pharmacokinetics in the monkey (ex vivo bio-test serum level). The following applies: Macaca fascicularis, intramuscular 4 mg/kg. The method, then:
For determination of the serum level, bio-tests are used ex vivo: briefly, the medicament is administered to the animal, then repeated blood samples are taken. The sera are decomplemented for 30 minutes at 56° C. The active metabolite content is then determined by incubation of different concentrations (dichotomic dilution) of each serum, in the presence of suspensions of erythrocytes infected by P. falciparum, according to the DESJARDINS method with [^3H] hypoxanthine.
The results are expressed in IS50, which corresponds to the percentage of serum (containing an active metabolite) capable of inhibiting the growth of P. falciparum by 50%. […]
The results are expressed as the log (serum level of medicaments), as a function of time, which allows the evaluation of the half-time for distribution to the serum compartment t1/2(d); the half-time for elimination of the serum compartment (t1/2(e)); of C0), corresponding to the serum level originally extrapolated during the elimination phase; the AUC (which indicates the quantity of drug circulating in the blood stream); and the relative bio-availability in the oral route administration method, as against the intraperitoneal route method [AUC (po)/AUC (ip)] which is an indicator of the degree of absorption by oral route. […]

Series [5] has as its system Babesia divergens. The series can be described thus: Antibabesiasis activity in vitro against Babesia divergens. It counts as cell-based. The method, then: (§3) The products TE4c, TS3b and P1 were also evaluated in vitro for their activities against Babesia divergens and B. canis.
For series [6], the system named is B. canis. The series can be described thus: Antibabesiasis activity in vitro against B. canis. It counts as cell-based. The method, then: as §3

Like-named read-outs stand apart in the source and are kept apart here.

The values below come from patent publication US6972343B1, “Quaternary bis-ammonium salt precursors and their uses as prodrugs having an antiparasitic activity” (CNRS, priority 1999, dated 2005).

Broadly, the IC50 is the concentration at which inhibition is half-maximal. Consider `CCCSSC(CCO)=C(C)N(C=O)CCCCCCCCCCCCN(C=O)C(C)=C(CCO)SSCCC` [TS3b, N,N′-diformyl-N,N′-di[1-methyl-2-propyl-dithio-4-hydroxybut-1-enyl]-1,12-diaminododecane], for which the IC50 in series [1] was 1.3 nM; in series [5], < 20 nM; in series [6], < 20 nM. For the same molecule, in series [2] (acute administration), the “Oral absorption index (LD50 po/LD50 ip ratio, acute)” value was 6.7. Also, the LD50 at 4 days in series [2] (ip, infected mice, ip, read-out: In vivo LD50 (mg/kg) semi-chronic in mice infected with malaria) stood at 32 mg/kg; in series [2] (ip, TE4c value corresponds to death of only 25% of the mice, read-out: In vivo LD50 (mg/kg) (mouse) semi-chronic), 90 mg/kg; in series [2] (po, read-out: In vivo LD50 (mg/kg) (mouse) semi-chronic), 410 mg/kg. In addition, the LD50 in series [2] (ip) is 240 mg/kg; in series [2] (po), 1600 mg/kg. The ED50 in series [3] (ip) is ~7 mg/kg; in series [3] (po), ~180 mg/kg. Further, in series [4], the “time of first serum level peak” value is listed as “in less than two hours”.
